The values below come from US12678489B2, “Multi-receptor agonist and medical use thereof” (JIANGSU HANSOH PHARMACEUTICAL GROUP CO., LTD., priority 2019, dated 2026).

Square brackets hold non-standard residues; d marks the D form. Aib = CC(C)(N)C(=O)O

One data set has as its target T1, human GLP-1R (Homo sapiens, UniProt P43220).
T1 construct: expressed in transfected cells; host or cells: CHO-K1 (stably transfected, with CRE-luc reporter)
The data set is described as follows: Agonistic activity for GLP-1R, cAMP HTRF in CHO-K1/GLP-1R/CRE-luc stably transfected cells. It is filed as cell-based. As to conditions: Table 4, polypeptide backbone compounds.

In a further data set the target is T2, human GIPR (Homo sapiens, UniProt P48546).
T2 construct: expressed in transfected cells; host or cells: wild-type CHO-K1, transient transfection with hGIPR plasmid (Fugene HD)
T2 sequence (P48546 22-466): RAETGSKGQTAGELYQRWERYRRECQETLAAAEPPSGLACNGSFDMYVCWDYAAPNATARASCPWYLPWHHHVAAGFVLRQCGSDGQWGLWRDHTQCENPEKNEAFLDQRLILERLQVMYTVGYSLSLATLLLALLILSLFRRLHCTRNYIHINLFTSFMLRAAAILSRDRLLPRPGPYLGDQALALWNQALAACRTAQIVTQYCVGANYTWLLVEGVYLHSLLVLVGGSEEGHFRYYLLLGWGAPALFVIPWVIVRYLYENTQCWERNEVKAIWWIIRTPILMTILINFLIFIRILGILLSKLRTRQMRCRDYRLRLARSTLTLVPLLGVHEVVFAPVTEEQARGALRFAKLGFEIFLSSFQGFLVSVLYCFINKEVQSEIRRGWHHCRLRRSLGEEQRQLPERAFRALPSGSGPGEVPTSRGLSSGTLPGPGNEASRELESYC
The data set can be described thus: Agonistic activity for GIPR, cAMP HTRF in CHO-K1 cells transiently transfected with hGIPR. The data set is classed as cell-based. As to conditions: Table 4, polypeptide backbone compounds. The protocol: Wild-type CHO-K1 cells were collected, and the cell suspension was adjusted to an appropriate density, plated in a 6-well plate at 2 mL per well, and placed in a 37° C., 5% CO2 incubator for adhesion overnight. The mixture for transfection (hGIPR plasmid, Fugene HD (Promega Cat #E2311), OptiMEM (Gibco Cat #31985070)) was mixed well, placed at room temperature for 15 minutes, and was added at 100 μL to the corresponding cell well. After transfection of CHO-K1 cells for 24 h, hGIPR was over-expressed on the cell surface. The cells in 6-well plate were collected after the transient transfection, and were washed once with the experimental buffer (DMEM/F12 medium (Gibco Cat #11330032) comprising 0.1% casein (Sigma Cat #C3400)), and the cell density was adjusted with the experimental buffer. The cells were plated at a density of 5000 cells/5 μL/well in a 384-well plate (Sigma Cat #CLS4514), and then 2.5 μL of IBMX working solution (Sigma Cat #17018) prepared with buffer solution (the final concentration of IBMX was 0.5 mM) and 2.5 μL of the gradient diluted polypeptide sample were added into each well, centrifuged at 1000 rpm for 1 min, shaken for 30 seconds to mix well, and incubated at room temperature for 30 minutes. Cisbio cAMP-Gs Dynamic kit (Cisbio Cat #62 AM4PEC) was used for detection. cAMP-d2 and Anti-cAMP-Eu3+-Cryptate were diluted with 20-fold cAMP Lysis & Detection Buffer respectively, and mixed well. 5 μL of the diluted cAMP-d2 solution was added into each well, and then 5 μL of the diluted Anti-cAMP-Eu3+-Cryptate solution was added into each well, shaken for 30 seconds to mix well, and incubated at room temperature for 1 hour in the dark.
HTRF signal was read with Biotek Synergy H1 microplate reader, with the excitation wavelength of 320 nm, and emission wavelength of 620 nm and 665 nm. The signal ratio (665 nm/620 nm*10,000) was calculated, and the signal ratio was nonlinear fitted to the sample concentration with four-parameter equation in GraphPad Prism 6, resulting in the EC50 values.
(TR-FRET usually uses a lanthanide donor and a delayed reading to cut background.)

Data set [1] in a line: Stability of the compounds in SD rat plasma (LC-MS). It is filed as in vitro ADME. To be noted: Table 6. The protocol: Five microliters of samples with concentrations of 20, 50, 100, 200, 500, 1000, 2000, 5000, 10000 ng/ml were added into 45 microliters of SD rat plasma, and the compound contents were detected by LC-MS, and a standard curve was plotted. 5 microliters of the polypeptide solution with a concentration of 1 mg/ml was added into 45 microliters of SD rat plasma. Five samples were prepared for each test compound, and 1 sample was taken out at 0 min, 30 min, 60 min, 120 min, and 240 min respectively. The content of the residual compounds was detected by LC-MS. The content at 0 min was used as control (100%), and the relative contents of the residual compound in the sample at other time points were calculated.

T1 sequence (P43220 24-463): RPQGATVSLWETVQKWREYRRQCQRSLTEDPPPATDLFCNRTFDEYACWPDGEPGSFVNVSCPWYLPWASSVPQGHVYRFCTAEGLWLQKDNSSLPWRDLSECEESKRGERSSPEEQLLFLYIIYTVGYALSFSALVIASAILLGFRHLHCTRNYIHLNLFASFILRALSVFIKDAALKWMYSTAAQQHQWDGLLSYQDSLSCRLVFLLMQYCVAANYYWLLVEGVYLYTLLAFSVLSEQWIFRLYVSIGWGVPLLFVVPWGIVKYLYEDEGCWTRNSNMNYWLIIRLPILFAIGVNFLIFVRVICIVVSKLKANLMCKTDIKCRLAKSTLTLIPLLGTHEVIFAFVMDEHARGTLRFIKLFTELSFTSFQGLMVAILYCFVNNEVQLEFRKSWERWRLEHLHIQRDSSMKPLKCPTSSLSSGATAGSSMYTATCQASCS

By EC50 is commonly meant the concentration at which the effect is half-maximal. With “H-Y[Aib]EGTFTSDYSIYLEKEAAKEFINWLLAGGPSSGAPPPS-NH2 [Compound 63]”, the EC50 at human GLP-1R came out at 0.01 nM; on human GIPR, 0.02 nM. Besides, in data set [1] (0 min (control, set to 100%)), the “Relative content of the residual compounds in plasma (%) 0 min” value is listed as 100.00%. For the same substance, the “Relative content of the residual compounds in plasma (%) 30 min” value in data set [1] (30 min) worked out at 99.31%. The “Relative content of the residual compounds in plasma (%) 60 min” value in data set [1] (60 min) amounted to 98.56%. Besides, the “Relative content of the residual compounds in plasma (%) 120 min” value in data set [1] (120 min) came out at 109.18%. Besides, the “Relative content of the residual compounds in plasma (%) 240 min” value in data set [1] (240 min) came to 108.30%.
